Source: US9062125B2, “Use of GIP for the treatment of disorders associated with dysfunctional synaptic transmission” (Innovation Ulster Limited, priority 2007, dated 2015)
Non-standard residues stand in square brackets, D forms with d. No end group written: not given here. *: point of attachment. mPEG = mini-PEG HO—(CH2—O—CH2)n—H, n about 3; Myristoyl = CCCCCCCCCCCCCC(=O)*

Columns and labels:
Set-up in all cases: species or system rat
[1] = tested on: Male Wistar rats; assay: In vivo LTP in hippocampal CA1 (field EPSP slope), strong HFS protocol, icv injection
Excerpt: (§1) Male Wistar rats weighing 220-280 g were anaesthetised with urethane (ethyl carbamate, 1.8 g/kg, i.p.) for the duration of all experiments. The animals had been obtained from Harlan, United Kingdom (UK).
(§2) A cannula (22 gauge, 0.7 mm outer diameter, 11 mm in length, Bilaney, Kent, UK) was implanted (1.5 mm anterior to bregma, 0.5 mm lateral to the midline and 3.55 mm ventral) into the left hemisphere for intracerebroventricular (icv) injections. Electrodes (tungsten with Teflon coating, Bilaney, Kent, UK) were implanted unilaterally 3.4 mm posterior and 2.5 mm lateral to the midline, and the stimulating electrode 4.2 mm posterior to bregma and 3.8 mm lateral to the midline. […] Recordings of EPSPs were made from the stratum radiatum in the CA1 region of the right hippocampal hemisphere in response to stimulation of the Schaffer collateral/commissural pathway.
(§3) Field EPSPs were recorded on a computerised stimulating and recording unit (PowerLab, ADI instruments, UK) in which the trigger threshold was adjustable. The triggered unit activated a constant current stimulus isolation unit (Neurolog, UK). The data acquisition system was triggered simultaneously to record all events. Sampling speed was at 20 kHz recording of EPSPs.
(§4) The ‘strong’ high frequency stimulation (HFS) protocol for inducing LTP consisted of 3 trains of 200 stimuli, inter-stimulus interval 5 ms (200 Hz), inter-train interval 2 sec. […] The ‘weak’ HFS protocol for inducing LTP consisted of 10 trains of 10 stimuli, inter-stimulus interval 5 ms (200 Hz). The strong HFS was used to test the effects of peptides that impair LTP (beta-amyloid), and the weak HFS was used to test peptides that facilitate LTP. In this form of LTP, the control group is not potentiated at a maximal rate, and LTP can decay slowly over time.
(§5) Stimulation intensity was 70% of the maximum EPSP. LTP was measured as a % of baseline EPSP slope recorded over a 30 min period prior to drug injection and 60 min prior to application of HFS. Baseline was recorded for 30 min and averaged. This value was taken as 100% of the EPSP slope and all recoded values were normalised to this baseline value.
Beta-amyloid(25-35) and other peptides used in this study were synthetised on an Applied Biosystems automated peptides synthesiser (Model 432A) using standard solid-phase Fmoc protocols. […]
(§6) Each group consisted of 6 animals. Data were analysed using a repeated measures two-way ANOVA, or a repeated measures three level two-way ANOVA with post-hoc tests to discriminate between groups (PRISM, GraphPad software Inc, USA).

[2] = tested on: Male Wistar rats; assay: In vivo LTP in hippocampal CA1 (field EPSP slope), weak HFS protocol, icv injection; settings: 15 nmol icv, LTP induced 30 min post-injection, n=6
Excerpt: as §1, §2, §3, §4, §5
Beta-amyloid(25-35) and other peptides used in this study were synthetised on an Applied Biosystems automated peptides synthesiser (Model 432A) using standard solid-phase Fmoc protocols. Peptides were judged pure by reversed phase HPLC on a Waters Millennium 2010 chromatography system, and peptides were subsequently characterised using matrix-assisted laser desorption/ionisation time of flight (MALDI-TOF) mass spectrometry as described previously (Gengler et al., 2006; Hölscher et al., 2007). Peptides were stored in dry form and dissolved in double distilled water before the experiments. 5 μl of peptide solution was injected icv.
as §6

[3] = tested on: Male Wistar rats; assay: In vivo prevention of beta-amyloid(25-35)-induced impairment of LTP in hippocampal CA1; settings: n=6, FIG. 5
Excerpt: as §1
A cannula (22 gauge, 0.7 mm outer diameter, 11 mm in length, Bilaney, Kent, UK) was implanted (1.5 mm anterior to bregma, 0.5 mm lateral to the midline and 3.55 mm ventral) into the left hemisphere for intracerebroventricular (icv) injections. Electrodes (tungsten with Teflon coating, Bilaney, Kent, UK) were implanted unilaterally 3.4 mm posterior and 2.5 mm lateral to the midline, and the stimulating electrode 4.2 mm posterior to bregma and 3.8 mm lateral to the midline. […]
Field EPSPs were recorded on a computerised stimulating and recording unit (PowerLab, ADI instruments, UK) in which the trigger threshold was adjustable. […]
Stimulation intensity was 70% of the maximum EPSP. LTP was measured as a % of baseline EPSP slope recorded over a 30 min period prior to drug injection and 60 min prior to application of HFS. Baseline was recorded for 30 min and averaged. […]
Each group consisted of 6 animals. Data were analysed using a repeated measures two-way ANOVA, or a repeated measures three level two-way ANOVA with post-hoc tests to discriminate between groups (PRISM, GraphPad software Inc, USA). […]

[4] = 15 nmol icv, LTP induced 30 min post-injection, n=6

With “Ala(1)GIP: human GIP(1-42) in which Tyr at position 1 has been replaced with L-Ala (AAEGTFISDYSIAMDKIHQQDFVNWLLAQKGKKNDWKHNITQ; Synthetic analogue derived from human GIP(1-42))” the “effect on long-term potentiation (LTP; change in EPSP) compared with control” value [1, 4] was “attenuated long-term potentiation (LTP) compared with control”.
With “D-Ala(2)GIP: human GIP(1-42) in which L-Ala at position 2 has been replaced with D-Ala (Y[dA]EGTFISDYSIAMDKIHQQDFVNWLLAQKGKKNDWKHNITQ)” the “effect on long-term potentiation (LTP; change in EPSP) compared with control” value [2] was “enhanced long-term potentiation (LTP) compared with control”.
For “βA(25-35): beta-amyloid fragment 25-35, synthesised peptide used to impair LTP (GSNKGAIIGLM; Amyloid-beta protein 42; UniProt P05067 696-706, looked up, fragment) [reference compound]”, the “effect on long-term potentiation (LTP; change in EPSP) compared with control” value ([1]; 10 nmol icv, LTP induced 15 min post-injection, p<0.01, n=6, FIG. 2) was “impaired long-term potentiation (LTP) compared with control”, the “effect on long-term potentiation (LTP; change in EPSP) compared with control” value ([1]; 100 nmol icv, LTP induced 15 min post-injection, p<0.005, n=6, FIG. 2) was “LTP development was also impaired” and the “effect on LTP compared with control (Example 5 experiment)” value ([3]; 100 nmol icv alone, LTP induced 15 min post-injection, p<0.001) was “difference between the βA(25-35) group and control”.
In the case of “GIP: Human gastric inhibitory polypeptide, full length 42 amino acid peptide, SEQ ID NO: 1 (YAEGTFISDYSIAMDKIHQQDFVNWLLAQKGKKNDWKHNITQ; listed as Homo sapiens)”, the “effect on long-term potentiation (LTP; change in EPSP) compared with control” value [2] is reported as “increased long-term potentiation (LTP) compared with control”.
For “N-AcGIP: N-terminally acetylated human GIP(1-42)”, the “effect on long-term potentiation (LTP; change in EPSP) compared with control” value [2] was “enhanced long-term potentiation (LTP) compared with control” and the “effect on βA(25-35)-induced impairment of LTP” value ([3]; 15 nmol icv, 100 nmol βA(25-35) injected 30 min later, LTP induced 15 min post-βA injection, p<0.001 vs βA group) was “attenuated the βA(25-35)-induced impairment of LTP”.
With “GIP[mPEG]: C-terminal mini-PEGylated human GIP(1-42), polymer moiety HO—(CH2—O—CH2)n—H, n about 3 (YAEGTFISDYSIAMDKIHQQDFVNWLLAQKGKKNDWKHNITQ-mPEG; UniProt P09681 52-93, looked up)” the “effect on long-term potentiation (LTP; change in EPSP) compared with control” value [2] was “enhanced long-term potentiation (LTP) compared with control”.
“GIP[Lys(37)Myristic acid]: GIP analogue created by Myristic acid addition at an epsilon amino group of Lys(37) (YAEGTFISDYSIAMDKIHQQDFVNWLLAQKGKKNDWK(Myristoyl)HNITQ; UniProt P09681 52-93, looked up)” was tested, and the “effect on long-term potentiation (LTP; change in EPSP) compared with control” value [2] was “enhanced long-term potentiation (LTP) compared with control”.
For “Pro(3)GIP: human GIP(1-42) in which Glu at position 3 has been replaced with L-Pro (YAPGTFISDYSIAMDKIHQQDFVNWLLAQKGKKNDWKHNITQ; Synthetic analogue derived from human GIP(1-42))”, the “effect on long-term potentiation (LTP; change in EPSP) compared with control” value [1, 4] was “attenuated long-term potentiation (LTP) compared with control”.
